Tests used:
Format in all cases: functional
DU-145 = experiment: Growth inhibition of human DU145 cells after 48 hrs by SRB protein assay; conditions: DU-145, 48 h
OVCAR-3 = experiment: Growth inhibition of human OVCAR-3 cells after 48 hrs by SRB protein assay; conditions: OVCAR-3, 48 h
RXF 393 = experiment: Growth inhibition of human RXF393 cells after 48 hrs by SRB protein assay; conditions: RXF 393, 48 h
SK-OV-3 = experiment: Growth inhibition of human SK-OV-3 cells after 48 hrs by SRB protein assay; conditions: SK-OV-3, 48 h
MCF7 = experiment: Growth inhibition of human MCF7 cells after 48 hrs by SRB protein assay; conditions: MCF7, 48 h
ACHN = experiment: Growth inhibition of human ACHN cells after 48 hrs by SRB protein assay
MDA-MB-231 = experiment: Growth inhibition of MDA-MB-231 cells after 48 hrs by SRB protein assay; conditions: Homo sapiens, MDA-MB-231, 48 h
BT-549 = experiment: Growth inhibition of human BT549 cells after 48 hrs by SRB protein assay; conditions: BT-549, 48 h
NCI-H522 = experiment: Growth inhibition of human NCI-H522 cells after 48 hrs by SRB protein assay; conditions: NCI-H522, 48 h
UACC-62 = experiment: Growth inhibition of human UACC62 cells after 48 hrs by SRB protein assay; conditions: UACC-62, 48 h
MOLT-4 = experiment: Growth inhibition of human MOLT4 cells after 48 hrs by SRB protein assay; conditions: MOLT-4, 48 h
IGROV-1 = experiment: Growth inhibition of human IGROV1 cells after 48 hrs by SRB protein assay; conditions: IGROV-1, 48 h
RPMI-8226 = experiment: Growth inhibition of human RPMI8226 cells after 48 hrs by SRB protein assay; conditions: RPMI-8226, 48 h
T47D = experiment: Growth inhibition of human T47D cells after 48 hrs by SRB protein assay
EKVX = experiment: Growth inhibition of human EKVX cells after 48 hrs by SRB protein assay
PC-3 = experiment: Growth inhibition of human PC3 cells after 48 hrs by SRB protein assay; conditions: PC-3, 48 h
M14 = experiment: Growth inhibition of human M14 cells after 48 hrs by SRB protein assay; conditions: M14, 48 h
SN12C = experiment: Growth inhibition of human SN12C cells after 48 hrs by SRB protein assay
A549 = experiment: Growth inhibition of human A549 cells after 48 hrs by SRB protein assay; conditions: A549, 48 h
SK-MEL-5 = experiment: Growth inhibition of human SK-MEL-5 cells after 48 hrs by SRB protein assay; conditions: SK-MEL-5, 48 h
MDA-MB-435 = experiment: Growth inhibition of human MDA-MB-435 cells after 48 hrs by SRB protein assay; conditions: MDA-MB-435, 48 h
Hs-578T = experiment: Growth inhibition of human HS578T cells after 48 hrs by SRB protein assay
SK-MEL-2 = experiment: Growth inhibition of human SK-MEL-2 cells after 48 hrs by SRB protein assay; conditions: SK-MEL-2, 48 h
UACC-257 = experiment: Growth inhibition of human UACC257 cells after 48 hrs by SRB protein assay; conditions: UACC-257, 48 h
NCI-H460 = experiment: Growth inhibition of human NCI-H460 cells after 48 hrs by SRB protein assay; conditions: NCI-H460, 48 h
KM12 = experiment: Growth inhibition of human KM12 cells after 48 hrs by SRB protein assay; conditions: KM12, 48 h
HCT-116 = experiment: Growth inhibition of human HCT116 cells after 48 hrs by SRB protein assay; conditions: HCT-116, 48 h
SNB-75 = experiment: Growth inhibition of human SNB75 cells after 48 hrs by SRB protein assay; conditions: SNB-75, 48 h
COLO 205 = experiment: Growth inhibition of human COLO205 cells after 48 hrs by SRB protein assay; conditions: COLO 205, 48 h
HT-29 = experiment: Growth inhibition of human HT29 cells after 48 hrs by SRB protein assay; conditions: HT-29, 48 h
U-251 = experiment: Growth inhibition human U251 of cells after 48 hrs by SRB protein assay; conditions: U-251, 48 h
SF-539 = experiment: Growth inhibition of human SF539 cells after 48 hrs by SRB protein assay; conditions: SF-539, 48 h
NCI-H23 = experiment: Growth inhibition of human NCI-H23 cells after 48 hrs by SRB protein assay; conditions: NCI-H23, 48 h
OVCAR-5 = experiment: Growth inhibition of human OVCAR5 cells after 48 hrs by SRB protein assay; conditions: OVCAR-5, 48 h
OVCAR-8 = experiment: Growth inhibition of human OVCAR8 cells after 48 hrs by SRB protein assay; conditions: OVCAR-8, 48 h
HCC 2998 = experiment: Growth inhibition of human HCC2998 cells after 48 hrs by SRB protein assay; conditions: HCC 2998, 48 h
UO-31 = experiment: Growth inhibition of human UO31 cells after 48 hrs by SRB protein assay; conditions: UO-31, 48 h
CAKI-1 = experiment: Growth inhibition of human CAKI1 cells after 48 hrs by SRB protein assay; conditions: CAKI-1, 48 h
SW-620 = experiment: Growth inhibition of human SW620 cells after 48 hrs by SRB protein assay; conditions: SW-620, 48 h

- GI50 (DU-145): 14.5 µM
- GI50 (OVCAR-3): 24 µM
- GI50 (SK-OV-3): 66.1 µM
- GI50 (MCF7): 75.9 µM
- GI50 (ACHN): 10.7 µM
- GI50 (MDA-MB-231): 12.9 µM
- GI50 (BT-549): 12.9 µM
- GI50 (NCI-H522): 14.1 µM
- GI50 (MOLT-4): 6.76 µM
- GI50 (RPMI-8226): 7.41 µM
- GI50 (T47D): 37.2 µM
- GI50 (PC-3): 20.4 µM
- GI50 (A549): 13.5 µM
- GI50 (SK-MEL-5): 5.62 µM
- GI50 (MDA-MB-435): 12 µM
- GI50 (SK-MEL-2): 33.1 µM
- GI50 (NCI-H460): 52.5 µM
- GI50 (HCT-116): 9.33 µM
- GI50 (COLO 205): 66.1 µM
- GI50 (HT-29): 43.7 µM
- GI50 (U-251): 12.9 µM
- GI50 (NCI-H23): 12.6 µM
- GI50 (OVCAR-5): 30.9 µM
- GI50 (OVCAR-8): 2.34 µM
- GI50 (HCC 2998): 13.2 µM
- GI50 (SW-620): 18.6 µM
Compound: O=C(Cc1csc2nc(-c3ccc(Br)cc3)cn12)N/N=C/c1ccccc1
- TGI (DU-145; read-out: Log TGI (converted)): 44.7 µM
- TGI (OVCAR-3; read-out: Log TGI (converted)): 46.8 µM
- GI50 (RXF 393): 14.5 µM
- TGI (RXF 393; read-out: Log TGI (converted)): 38.9 µM
- TGI (SK-OV-3; read-out: Log TGI (converted)): > 100 µM
- TGI (MCF7; read-out: Log TGI (converted)): > 100 µM
- TGI (ACHN; read-out: Log TGI (converted)): 25.7 µM
- TGI (MDA-MB-231; read-out: Log TGI (converted)): 57.5 µM
- TGI (BT-549; read-out: Log TGI (converted)): 49 µM
- TGI (NCI-H522; read-out: Log TGI (converted)): 60.3 µM
- GI50 (UACC-62): 11.5 µM
- TGI (UACC-62; read-out: Log TGI (converted)): 28.2 µM
- TGI (MOLT-4; read-out: Log TGI (converted)): 37.2 µM
- GI50 (IGROV-1): 11.2 µM
- TGI (IGROV-1; read-out: Log TGI (converted)): 32.4 µM
- TGI (RPMI-8226; read-out: Log TGI (converted)): > 100 µM
- TGI (T47D; read-out: Log TGI (converted)): > 100 µM
- GI50 (EKVX): 6.92 µM
- TGI (EKVX; read-out: Log TGI (converted)): 52.5 µM
- TGI (PC-3; read-out: Log TGI (converted)): > 100 µM
- GI50 (M14): 20.9 µM
- TGI (M14; read-out: Log TGI (converted)): > 100 µM
- GI50 (SN12C): 13.2 µM
- TGI (SN12C; read-out: Log TGI (converted)): 39.8 µM
- TGI (A549; read-out: Log TGI (converted)): 40.7 µM
- TGI (SK-MEL-5; read-out: Log TGI (converted)): 26.9 µM
- TGI (MDA-MB-435; read-out: Log TGI (converted)): 51.3 µM
- GI50 (Hs-578T): 16.2 µM
- TGI (Hs-578T; read-out: Log TGI (converted)): 51.3 µM
- TGI (SK-MEL-2; read-out: Log TGI (converted)): > 100 µM
- GI50 (UACC-257): 6.17 µM
- TGI (UACC-257; read-out: Log TGI (converted)): 31.6 µM
- TGI (NCI-H460; read-out: Log TGI (converted)): > 100 µM
- GI50 (KM12): 26.3 µM
- TGI (KM12; read-out: Log TGI (converted)): > 100 µM
- TGI (HCT-116; read-out: Log TGI (converted)): 21.4 µM
- GI50 (SNB-75): 31.6 µM
- TGI (SNB-75; read-out: Log TGI (converted)): 89.1 µM
- TGI (COLO 205; read-out: Log TGI (converted)): > 100 µM
- TGI (HT-29; read-out: Log TGI (converted)): > 100 µM
- TGI (U-251; read-out: Log TGI (converted)): 32.4 µM
- GI50 (SF-539): 16.2 µM
- TGI (SF-539; read-out: Log TGI (converted)): 39.8 µM
- TGI (NCI-H23; read-out: Log TGI (converted)): 61.7 µM
- TGI (OVCAR-5; read-out: Log TGI (converted)): > 100 µM
- TGI (OVCAR-8; read-out: Log TGI (converted)): 20.4 µM
- TGI (HCC 2998; read-out: Log TGI (converted)): 49 µM
- GI50 (UO-31): 57.5 µM
- TGI (UO-31; read-out: Log TGI (converted)): > 100 µM
- GI50 (CAKI-1): 30.2 µM
- TGI (CAKI-1; read-out: Log TGI (converted)): 81.3 µM
- TGI (SW-620; read-out: Log TGI (converted)): 63.1 µM

Source: ChEMBL document CHEMBL1143799, “Synthesis and primary cytotoxicity evaluation of new imidazo[2,1-b]thiazole derivatives” (2007)
